Patent US20220387440A1, “FORMULATIONS FOR USE IN THE PREVENTION AND/OR TREATMENT OF PERIPHERAL NEUROPATHY AND ITS ASSOCIATED DISEASES” (priority 2019, published 2022)
Several values for one entry are separate records, joined by “and”; a condition that tells them apart may be missing. Identical values can stand only once. Like-named read-outs stand apart in the source and are kept apart here.

Columns and labels:
[1] = test system: rat dorsal root ganglion neurons (DRG); assay: WST-8 assay of viable cells, glucose toxicity; conditions: for Score of neuroprotection, WST8: glucose-treated DRGs
Description: (§1) Primary cultures of dorsal rat ganglion neurons were prepared from the dorsal ganglions of neonatal Sprague-Dawley rats at day 8. […] Cells were maintained in neurobasal medium supplemented with B-27 component for 8 days at 37° C. in a humidified 5% CO2 atmosphere.
2. WST-8 assay: For detection of viable cells, 10 μl of CCK-8 reagent (WST-8) were added to each well and the plate was incubated at 37° C. After 1 hour, absorbance was measured at 450 nm using the Synergy II microplate reader.

[2] = test system: rat dorsal root ganglion neurons (DRG); conditions: for Score of neuroprotection, Extremity count / Score of neuroprotection, Total length: glucose-treated DRGs
Description: In vitro injury was induced in DRGs culture by glucose treatment (150 mM) for 48 hours. […] By using HCS technology, cell parameters associated with neurite outgrowth—an indication of pre-lethal cytotoxic effects—were measured at single cell level, which allows high-throughput screening.
as §1
Beta-Ill tubulin staining: Beta-Ill tubulin staining was determined by Immunohistochemistry (IHQ). Cells were washed with PBS (Sigma Aldrich # Cat.D8537) and fixed with methanol for 10 minutes. After the fixation step the samples were washed three times with PBS and permeabilized with PBS+0.3% triton for 10 minutes. The samples were then blocked with PBS+Bovine Serum Albumine (BSA) for 30 minutes and finally anti-beta tubulin Ill antibody (Abcam # Cat.ab7751) were added at 1/1000 in PBS+0.5% BSA for 60 minutes at room temperature. […] The samples were then washed three times and measured under automated fluorescent microscope. To investigate the role of neurite extension, two geometric patterns were mainly employed in this study: total neurite length (total length of the path from a neuron body), and number of extremities (number of terminating neurite segments per neuron).
In order to acquire enough cells for the analysis, nine fields per well were imaged. The 20× objective was used to collect images for the distinct fluorescence channels. Dyes were excited and their fluorescence was monitored at the excitation and emission wavelengths with appropriate filter settings. In the setting up of the procedure, exposure times were adjusted in order to avoid overlapping emission between different probes. The collected images were analyzed using a module that allows the simultaneous quantification of subcellular structures, which are stained by different molecular probes to measure the fluorescence intensity associated with predefined nuclear and cytoplasmic compartments.

[3] = test system: rat dorsal root ganglion neurons (DRG); assay: Cell number by hoechst 33342 nucleic acid stain (HCS), glucose toxicity; conditions: for Score of neuroprotection, HOECHST: glucose-treated DRGs
Description: This dye allows a sensitive cell number determination by fluorescence microscopy.

eye = conditions: higher concentrations, accidental use instead of Trypan Blue during cataract surgery; cited from earlier work
glucose-treated DRGs = assay: Degree of neuroprotection, sum of scores of all HCS parameters; conditions: for Total score of neuroprotection (sum of individual scores): glucose-treated DRGs; for Neuroprotection degree: prior to assault with 150 mM glucose
Description: For all the studied parameters, a variation of at least 20% in fluorescence intensity or in the corresponding morphological parameter in relation to untreated cultures was considered. […] From this calculation, a neuroprotective scale was established: high (>6), moderate (4-5), low (1-3), and no neuroprotection (0).
In order to compare the degree of neuroprotection of the tested compound at different concentrations, different scores were created according to the level of the alteration (the group formation criterion is described in material and methods section) and then a value was assigned to each parameter. The sum of all the values for each parameter and concentration tested was calculated, and four distinct groups were created according to their level of neuroprotection.

peripheral nerves = conditions: injected into the spinal cord compartment of cerebral spinal fluid; cited from earlier work
[4] = diluted with sodium chloride 0.9%; cited from earlier work
[5] = Sprague-Dawley, rat, 48 h, 150 mM
[6] = MB 0.0005 uM (with glu 150 mM, 48 h)
[7] = MB 0.0005 uM (with glu 150 mM, 48 h), listed as MB
[8] = MB 0.005 uM (with glu 150 mM, 48 h)
[9] = MB 0.005 uM (with glu 150 mM, 48 h), listed as MB
[10] = MB 0.05 uM (with glu 150 mM, 48 h)
[11] = MB 0.05 uM (with glu 150 mM, 48 h), listed as MB
[12] = MB 0.5 uM (with glu 150 mM, 48 h)
[13] = MB 0.5 uM (with glu 150 mM, 48 h), listed as MB
[14] = MB 5 uM (with glu 150 mM, 48 h)
[15] = MB 5 uM (with glu 150 mM, 48 h), listed as MB
[16] = MB 50 uM (with glu 150 mM, 48 h)
[17] = MB 50 uM (with glu 150 mM, 48 h), listed as MB

In the case of `O=C[C@H](O)[C@@H](O)[C@H](O)[C@H](O)CO` [Glucose, glucose], the “viability reduction in DRGs measured by WST8” value ([1]; glucose 150 mM, 48 h) is reported as 22%, the “Extremity count/neuron (single replicates)” value ([2]; Glucose (Alone) 150 mM, 48 h) is reported as 0.82 and 0.9862 and 0.7818 and the “Extremity count/neuron, Mean % of control” value ([2]; Glucose (Alone) 150 mM, 48 h) is reported as 69.57 % of control. For the same compound, the “Extremity count/neuron, mean” value ([2]; Glucose (Alone) 150 mM, 48 h) was 0.8627, the “Total length per neuron (single replicates)” value ([2]; Glucose (Alone) 150 mM, 48 h) was 42.95 and 52.97 and 37.56 and the “Total length per neuron, Mean % of control” value ([2]; Glucose (Alone) 150 mM, 48 h) was 62.89 % of control. The “Total length per neuron, mean” value ([2]; Glucose (Alone) 150 mM, 48 h) was 44.49, the “decrease in neurite extremity count compared to untreated cells” value [2, 5] was 31% and the “decrease in neurite total length compared to untreated cells” value [2, 5] was 38%. The “Cell viability by Hoechst (single replicates)” value ([3]; Glucose (Alone) 150 mM, 48 h) was 125 and 104 and 81, the “Cell viability by Hoechst, Mean % of control” value ([3]; Glucose (Alone) 150 mM, 48 h) was 46.76 % of control and the “Cell viability by Hoechst, mean” value ([3]; Glucose (Alone) 150 mM, 48 h) was 103.3. It also gave a mortality in neurons [3, 5] of 54%.

For `CN(C)c1ccc2nc3ccc(N(C)C)cc3[s+]c2c1` [methylene blue, 3,7-bis(dimethylamino) phenothiazin-5-ium chloride], the ocular toxicity (eye) is given as “irreversible blindness, corneal edema”, the “Total score of neuroprotection (sum of individual scores)” value (from here on “Total score of neuroprotection”) (glucose-treated DRGs; 0.0005 μM) is given as 3 and the Neuroprotection degree (glucose-treated DRGs; 0.0005 μM) is given as “low (low (1-3))”. The “Total score of neuroprotection” value (glucose-treated DRGs; 0.005 μM) was 3, the Neuroprotection degree (glucose-treated DRGs; 0.005 μM) was “low (low (1-3))” and the “Total score of neuroprotection” value (glucose-treated DRGs; 0.05 μM) was 5. The Neuroprotection degree (glucose-treated DRGs; 0.05 μM) was “moderate (moderate (4-5))”, the “Total score of neuroprotection” value (glucose-treated DRGs; 0.5 μM) was 3 and the Neuroprotection degree (glucose-treated DRGs; 0.5 μM) was “low (low (1-3))”. The “Total score of neuroprotection” value (glucose-treated DRGs; 5 μM) was 0, the Neuroprotection degree (glucose-treated DRGs; 5 μM) was “no (no neuroprotection (0))” and the “Total score of neuroprotection” value (glucose-treated DRGs; 50 μM) was −6. For the same compound, the “neuroprotection against glucose-induced DRGs toxicity, all parameters” value (glucose-treated DRGs; concentrations from 0.0005 μM to 0.5 μM) was “some neuroprotection”, the “Score of neuroprotection, WST8” value ([1]; 0.0005 μM) was 0 (no neuroprotection or variation lower than 20%) and the “Score of neuroprotection, WST8” value ([1]; 0.005 μM) was 0 (no neuroprotection or variation lower than 20%). For the same compound, the “Score of neuroprotection, WST8” value ([1]; 0.05 μM) was 0 (no neuroprotection or variation lower than 20%), the “Score of neuroprotection, WST8” value ([1]; 0.5 μM) was 0 (no neuroprotection or variation lower than 20%) and the “Score of neuroprotection, WST8” value ([1]; 5 μM) was 0 (no neuroprotection or variation lower than 20%). For the same compound, the “viability (WST8) in addition to glucose” value ([1]; 50 μM with 150 mM glucose) was “decrease in viability”, the “Score of neuroprotection, WST8” value ([1]; 50 μM) was −1 (variation 20-40%) and the “prevention of glucose induced viability decrease (WST8)” value ([1]; 0.0005-50 μM with 150 mM glucose) was “could not prevent glucose induced viability decrease”. For the same compound, the “nerve toxicity after injection into cerebral spinal fluid” value (peripheral nerves) was “massive peripheral nerves damage and resultant total paraplegia”, the “Score of neuroprotection, Extremity count” value (“Score … Extremity count” for short) ([2]; 0.0005 μM) was 0 (no neuroprotection or variation lower than 20%) and the “Score of neuroprotection, Total length” value ([2]; 0.0005 μM) was 0 (no neuroprotection or variation lower than 20%). For the same compound, the “Score … Extremity count” value ([2]; 0.005 μM) was 0 (no neuroprotection or variation lower than 20%), the “Score of neuroprotection, Total length” value ([2]; 0.005 μM) was 0 (no neuroprotection or variation lower than 20%) and the “re-establishment of neurite outgrowth affected by glucose” value ([2]; 0.05 μM with 150 mM glucose) was “could re-establish the affected neurite outgrowth”. The “Score … Extremity count” value ([2]; 0.05 μM) was 1 (variation 20-40%), the “Score of neuroprotection, Total length” value ([2]; 0.05 μM) was 1 (variation 20-40%) and the “Score … Extremity count” value ([2]; 0.5 μM) was 0 (no neuroprotection or variation lower than 20%). The “Score of neuroprotection, Total length” value ([2]; 0.5 μM) was 0 (no neuroprotection or variation lower than 20%), the “Score … Extremity count” value ([2]; 5 μM) was −1 (variation 20-40%) and the “Score of neuroprotection, Total length” value ([2]; 5 μM) was 0 (no neuroprotection or variation lower than 20%). For the same compound, the “Score … Extremity count” value ([2]; 50 μM) was −3 (variation 40-60%), the “Score of neuroprotection, Total length” value ([2]; 50 μM) was −1 (variation 20-40%) and the “Extremity count/neuron, Mean % of control” value [2, 6] was 77.9 % of control. For the same compound, the “Extremity count/neuron, mean” value [2, 6] was 0.966, the “Total length per neuron, Mean % of control” value [2, 6] was 70.88 % of control and the “Total length per neuron, mean” value [2, 6] was 50.15. For the same compound, the “Extremity count/neuron (single replicates)” value [2, 7] was 1.058 and 0.8613 and 0.9784, the “Total length per neuron (single replicates)” value [2, 7] was 50.96 and 40.13 and 59.36 and the “Extremity count/neuron, Mean % of control” value [2, 8] was 82.24 % of control. For the same compound, the “Extremity count/neuron, mean” value [2, 8] was 1.02, the “Total length per neuron, Mean % of control” value [2, 8] was 74.22 % of control and the “Total length per neuron, mean” value [2, 8] was 52.51. The “Extremity count/neuron (single replicates)” value [2, 9] was 0.8645 and 1.19 and 1.005, the “Total length per neuron (single replicates)” value [2, 9] was 45.83 and 61.19 and 50.5 and the “Extremity count/neuron, Mean % of control” value [2, 10] was 95.29 % of control. For the same compound, the “Extremity count/neuron, mean” value [2, 10] was 1.182, the “Total length per neuron, Mean % of control” value [2, 10] was 86.27 % of control and the “Total length per neuron, mean” value [2, 10] was 61.03. For the same compound, the “Extremity count/neuron (single replicates)” value [2, 11] was 1.345 and 1.059 and 1.141, the “Total length per neuron (single replicates)” value [2, 11] was 62.91 and 50.39 and 69.8 and the “Extremity count/neuron, Mean % of control” value [2, 12] was 61.57 % of control. The “Extremity count/neuron, mean” value [2, 12] was 0.7634, the “Total length per neuron, Mean % of control” value [2, 12] was 56.15 % of control and the “Total length per neuron, mean” value [2, 12] was 39.72. For the same compound, the “Extremity count/neuron (single replicates)” value [2, 13] was 0.6567 and 0.8552 and 0.7784, the “Total length per neuron (single replicates)” value [2, 13] was 37.34 and 47.77 and 34.07 and the “Extremity count/neuron, Mean % of control” value [2, 14] was 52.97 % of control. For the same compound, the “Extremity count/neuron, mean” value [2, 14] was 0.6568, the “Total length per neuron, Mean % of control” value [2, 14] was 60.36 % of control and the “Total length per neuron, mean” value [2, 14] was 42.7. The “Extremity count/neuron (single replicates)” value [2, 15] was 0.8559 and 0.5369 and 0.5777, the “Total length per neuron (single replicates)” value [2, 15] was 53.61 and 42.2 and 32.3 and the “Extremity count/neuron, Mean % of control” value [2, 16] was 20.98 % of control. For the same compound, the “Extremity count/neuron, mean” value [2, 16] was 0.2601, the “Total length per neuron, Mean % of control” value [2, 16] was 22.74 % of control and the “Total length per neuron, mean” value [2, 16] was 16.09. For the same compound, the “Extremity count/neuron (single replicates)” value [2, 17] was 0.2833 and 0.2345 and 0.2625, the “Total length per neuron (single replicates)” value [2, 17] was 18.18 and 12.64 and 17.45 and the “Score of neuroprotection, HOECHST” value ([3]; 0.0005 μM) was 3 (variation 60-100%). For the same compound, the “Score of neuroprotection, HOECHST” value ([3]; 0.005 μM) was 3 (variation 60-100%), the “Score of neuroprotection, HOECHST” value ([3]; 0.05 μM) was 3 (variation 60-100%) and the “Score of neuroprotection, HOECHST” value ([3]; 0.5 μM) was 3 (variation 60-100%). The “Score of neuroprotection, HOECHST” value ([3]; 5 μM) was 1 (variation 20-40%), the “Score of neuroprotection, HOECHST” value ([3]; 50 μM) was −1 (variation 20-40%) and the “Cell viability by Hoechst, Mean % of control” value [3, 6] was 100.3 % of control. The “Cell viability by Hoechst, mean” value [3, 6] was 221.7, the “Cell viability by Hoechst (single replicates)” value [3, 7] was 187 and 236 and 242 and the “Cell viability by Hoechst, Mean % of control” value [3, 8] was 115.1 % of control. For the same compound, the “Cell viability by Hoechst, mean” value [3, 8] was 254.3, the “Cell viability by Hoechst (single replicates)” value [3, 9] was 255 and 290 and 218 and the “Cell viability by Hoechst, Mean % of control” value [3, 10] was 115.2 % of control. The “Cell viability by Hoechst, mean” value [3, 10] was 254.7, the “Cell viability by Hoechst (single replicates)” value [3, 11] was 270 and 253 and 241 and the “Cell viability by Hoechst, Mean % of control” value [3, 12] was 109.2 % of control. For the same compound, the “Cell viability by Hoechst, mean” value [3, 12] was 241.3, the “Cell viability by Hoechst (single replicates)” value [3, 13] was 234 and 217 and 273 and the “Cell viability by Hoechst, Mean % of control” value [3, 14] was 64.56 % of control. For the same compound, the “Cell viability by Hoechst, mean” value [3, 14] was 142.7, the “Cell viability by Hoechst (single replicates)” value [3, 15] was 168 and 103 and 157 and the “Cell viability by Hoechst, Mean % of control” value [3, 16] was 30.92 % of control. The “Cell viability by Hoechst, mean” value [3, 16] was 68.33, the “Cell viability by Hoechst (single replicates)” value [3, 17] was 74 and 69 and 62 and the “prevention of glucose-induced mortality” value ([3]; all concentrations (0.0005-5 μM), dose dependent, except 50 μM, co-incubation with 150 mM glucose) was “could prevent glucose-induced mortality”. For the same compound, the compatibility with saline [4] was “precipitation has been reported”.
